Tests used:
Details in all cases: compound 10.0 µM
[1] = molecular target: SLK (human) (UniProt Q9H2G2)
[2] = molecular target: AKT1 (human) (UniProt P31749)
[3] = molecular target: JAK1 JH2 pseudokinase (human) (UniProt P23458)
[4] = molecular target: CDK11B (human) (UniProt P21127)
[5] = molecular target: SIK1 (human) (UniProt P57059)
[6] = molecular target: DMPK (human) (UniProt Q09013)
[7] = molecular target: TEK (human) (UniProt Q02763)
[8] = molecular target: PAK7 (human) (UniProt Q9P286)
[9] = molecular target: FLT3 (human) (UniProt P36888)
[10] = system: FLT3 (human), P36888 [N841I]
[11] = molecular target: PRKACB (human) (UniProt P22694)
[12] = molecular target: STK3 (human) (UniProt Q13188)
STK3 (human), sequence (Q13188 whole entry, looked up): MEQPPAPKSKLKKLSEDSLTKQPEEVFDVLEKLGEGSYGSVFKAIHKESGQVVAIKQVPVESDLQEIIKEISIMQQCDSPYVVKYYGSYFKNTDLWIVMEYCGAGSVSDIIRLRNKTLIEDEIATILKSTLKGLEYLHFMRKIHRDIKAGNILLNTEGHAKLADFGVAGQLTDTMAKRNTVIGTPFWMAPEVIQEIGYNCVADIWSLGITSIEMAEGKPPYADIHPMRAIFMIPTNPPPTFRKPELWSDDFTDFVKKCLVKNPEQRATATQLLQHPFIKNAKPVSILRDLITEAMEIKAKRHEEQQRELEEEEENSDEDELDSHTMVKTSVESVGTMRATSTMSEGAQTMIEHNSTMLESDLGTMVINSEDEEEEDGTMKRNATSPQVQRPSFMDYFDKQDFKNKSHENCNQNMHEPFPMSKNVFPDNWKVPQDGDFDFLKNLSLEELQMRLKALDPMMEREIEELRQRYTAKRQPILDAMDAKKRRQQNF

[13] = molecular target: NEK9 (human) (UniProt Q8TD19)
[14] = molecular target: ACVR2A (human) (UniProt P27037)
[15] = molecular target: MET (human) (UniProt P08581)
[16] = molecular target: CAMK2A (human) (UniProt Q9UQM7)
[17] = molecular target: NEK11 (human) (UniProt Q8NG66)
[18] = molecular target: TESK1 (human) (UniProt Q15569)
[19] = molecular target: RPS6KA6 KD2 (human) (UniProt Q9UK32)
[20] = molecular target: TNNI3K (human) (UniProt Q59H18)
[21] = molecular target: TEC (human) (UniProt P42680)
[22] = system: FLT3 (human), P36888 [ITD]
[23] = molecular target: LATS1 (human) (UniProt O95835)
[24] = molecular target: CSNK1E (human) (UniProt P49674)
CSNK1E (human), sequence (P49674 whole entry, looked up): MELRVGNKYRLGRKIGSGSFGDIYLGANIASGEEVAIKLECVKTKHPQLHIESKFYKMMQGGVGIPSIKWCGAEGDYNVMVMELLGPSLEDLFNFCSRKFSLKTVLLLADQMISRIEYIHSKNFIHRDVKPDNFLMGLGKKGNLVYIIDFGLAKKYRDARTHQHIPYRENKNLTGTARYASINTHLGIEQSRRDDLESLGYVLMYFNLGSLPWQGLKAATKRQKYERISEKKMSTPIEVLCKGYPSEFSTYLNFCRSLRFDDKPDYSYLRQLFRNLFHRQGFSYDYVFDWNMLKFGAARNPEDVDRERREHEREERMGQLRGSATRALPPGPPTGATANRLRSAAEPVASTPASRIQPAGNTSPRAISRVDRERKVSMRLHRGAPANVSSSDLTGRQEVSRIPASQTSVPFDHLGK

[25] = molecular target: CSNK1G3 (human) (UniProt Q9Y6M4)
[26] = molecular target: RIPK4 (human) (UniProt P57078)
[27] = molecular target: IGF1R (human) (UniProt P08069)
[28] = molecular target: MAP3K9 (human) (UniProt P80192)
[29] = molecular target: PRKD3 (human) (UniProt O94806)
[30] = molecular target: CDK16 (human) (UniProt Q00536)
[31] = molecular target: STK32B (human) (UniProt Q9NY57)
[32] = molecular target: INSR (human) (UniProt P06213)
INSR (human), sequence (P06213 whole entry, looked up): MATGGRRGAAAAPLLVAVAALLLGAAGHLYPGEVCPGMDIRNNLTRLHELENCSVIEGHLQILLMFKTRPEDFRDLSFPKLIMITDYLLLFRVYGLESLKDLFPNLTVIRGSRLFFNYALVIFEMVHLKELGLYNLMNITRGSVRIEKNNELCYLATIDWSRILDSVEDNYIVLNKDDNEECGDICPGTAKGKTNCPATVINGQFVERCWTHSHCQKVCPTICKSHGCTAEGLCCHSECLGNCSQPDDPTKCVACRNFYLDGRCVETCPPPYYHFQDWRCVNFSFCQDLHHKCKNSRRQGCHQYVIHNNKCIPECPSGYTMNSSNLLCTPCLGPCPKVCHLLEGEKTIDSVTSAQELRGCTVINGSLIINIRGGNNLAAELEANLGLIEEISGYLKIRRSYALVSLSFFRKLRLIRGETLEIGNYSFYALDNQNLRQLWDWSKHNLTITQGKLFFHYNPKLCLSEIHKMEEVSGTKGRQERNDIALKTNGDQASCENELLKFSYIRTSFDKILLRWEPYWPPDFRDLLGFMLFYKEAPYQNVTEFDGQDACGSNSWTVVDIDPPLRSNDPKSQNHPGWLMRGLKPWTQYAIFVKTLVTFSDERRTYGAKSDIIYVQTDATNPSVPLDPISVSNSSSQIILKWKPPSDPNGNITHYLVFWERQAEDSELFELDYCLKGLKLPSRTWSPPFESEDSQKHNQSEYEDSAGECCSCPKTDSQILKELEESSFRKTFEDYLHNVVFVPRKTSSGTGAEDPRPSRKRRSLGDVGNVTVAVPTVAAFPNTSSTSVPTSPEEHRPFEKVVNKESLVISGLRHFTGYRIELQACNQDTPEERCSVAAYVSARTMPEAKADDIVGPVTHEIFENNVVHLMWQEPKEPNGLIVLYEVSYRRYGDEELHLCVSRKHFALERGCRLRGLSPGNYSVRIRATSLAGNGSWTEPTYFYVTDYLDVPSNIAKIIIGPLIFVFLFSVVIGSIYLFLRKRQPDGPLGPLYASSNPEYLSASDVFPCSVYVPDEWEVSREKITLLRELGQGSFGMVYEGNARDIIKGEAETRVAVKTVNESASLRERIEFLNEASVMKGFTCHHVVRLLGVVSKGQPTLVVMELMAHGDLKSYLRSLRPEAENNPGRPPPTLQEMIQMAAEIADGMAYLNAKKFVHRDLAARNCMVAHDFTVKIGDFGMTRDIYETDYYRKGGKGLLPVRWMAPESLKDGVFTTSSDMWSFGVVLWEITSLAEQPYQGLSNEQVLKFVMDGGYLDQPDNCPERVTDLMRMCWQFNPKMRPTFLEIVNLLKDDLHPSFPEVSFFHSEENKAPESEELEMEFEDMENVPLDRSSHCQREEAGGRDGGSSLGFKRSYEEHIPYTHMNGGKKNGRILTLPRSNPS

[33] = molecular target: CDK18 (human) (UniProt Q07002)
CDK18 (human), sequence (Q07002 whole entry, looked up): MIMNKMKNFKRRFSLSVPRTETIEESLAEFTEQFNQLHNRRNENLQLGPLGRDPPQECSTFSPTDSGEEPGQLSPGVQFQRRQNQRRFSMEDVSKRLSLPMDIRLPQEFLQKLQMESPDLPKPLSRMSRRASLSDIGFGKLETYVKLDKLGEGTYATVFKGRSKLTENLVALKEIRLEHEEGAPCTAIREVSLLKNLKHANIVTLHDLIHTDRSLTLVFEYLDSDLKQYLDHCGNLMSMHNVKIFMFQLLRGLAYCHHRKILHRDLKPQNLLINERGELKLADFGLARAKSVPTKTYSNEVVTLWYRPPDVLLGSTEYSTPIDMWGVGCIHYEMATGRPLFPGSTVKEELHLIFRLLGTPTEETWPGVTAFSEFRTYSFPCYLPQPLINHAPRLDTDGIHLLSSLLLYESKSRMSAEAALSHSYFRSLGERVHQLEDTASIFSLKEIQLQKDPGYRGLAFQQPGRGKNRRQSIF

[34] = molecular target: MAP2K2 (human) (UniProt P36507)
MAP2K2 (human), sequence (P36507 whole entry, looked up): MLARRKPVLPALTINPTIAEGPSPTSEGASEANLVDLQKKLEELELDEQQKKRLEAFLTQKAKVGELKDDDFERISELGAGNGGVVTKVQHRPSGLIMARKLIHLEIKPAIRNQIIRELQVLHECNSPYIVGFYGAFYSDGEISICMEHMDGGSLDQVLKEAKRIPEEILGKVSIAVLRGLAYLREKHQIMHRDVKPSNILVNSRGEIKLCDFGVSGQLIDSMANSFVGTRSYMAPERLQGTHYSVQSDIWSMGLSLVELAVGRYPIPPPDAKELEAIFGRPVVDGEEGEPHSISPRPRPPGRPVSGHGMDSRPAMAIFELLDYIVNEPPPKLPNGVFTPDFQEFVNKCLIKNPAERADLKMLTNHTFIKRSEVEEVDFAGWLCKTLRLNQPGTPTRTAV

[35] = molecular target: EPHA8 (human) (UniProt P29322)
[36] = molecular target: ROS1 (human) (UniProt P08922)
[37] = molecular target: CASK (human) (UniProt O14936)
[38] = molecular target: MAK (human) (UniProt P20794)
[39] = molecular target: TNK2 (human) (UniProt Q07912)
TNK2 (human), sequence (Q07912 whole entry, looked up): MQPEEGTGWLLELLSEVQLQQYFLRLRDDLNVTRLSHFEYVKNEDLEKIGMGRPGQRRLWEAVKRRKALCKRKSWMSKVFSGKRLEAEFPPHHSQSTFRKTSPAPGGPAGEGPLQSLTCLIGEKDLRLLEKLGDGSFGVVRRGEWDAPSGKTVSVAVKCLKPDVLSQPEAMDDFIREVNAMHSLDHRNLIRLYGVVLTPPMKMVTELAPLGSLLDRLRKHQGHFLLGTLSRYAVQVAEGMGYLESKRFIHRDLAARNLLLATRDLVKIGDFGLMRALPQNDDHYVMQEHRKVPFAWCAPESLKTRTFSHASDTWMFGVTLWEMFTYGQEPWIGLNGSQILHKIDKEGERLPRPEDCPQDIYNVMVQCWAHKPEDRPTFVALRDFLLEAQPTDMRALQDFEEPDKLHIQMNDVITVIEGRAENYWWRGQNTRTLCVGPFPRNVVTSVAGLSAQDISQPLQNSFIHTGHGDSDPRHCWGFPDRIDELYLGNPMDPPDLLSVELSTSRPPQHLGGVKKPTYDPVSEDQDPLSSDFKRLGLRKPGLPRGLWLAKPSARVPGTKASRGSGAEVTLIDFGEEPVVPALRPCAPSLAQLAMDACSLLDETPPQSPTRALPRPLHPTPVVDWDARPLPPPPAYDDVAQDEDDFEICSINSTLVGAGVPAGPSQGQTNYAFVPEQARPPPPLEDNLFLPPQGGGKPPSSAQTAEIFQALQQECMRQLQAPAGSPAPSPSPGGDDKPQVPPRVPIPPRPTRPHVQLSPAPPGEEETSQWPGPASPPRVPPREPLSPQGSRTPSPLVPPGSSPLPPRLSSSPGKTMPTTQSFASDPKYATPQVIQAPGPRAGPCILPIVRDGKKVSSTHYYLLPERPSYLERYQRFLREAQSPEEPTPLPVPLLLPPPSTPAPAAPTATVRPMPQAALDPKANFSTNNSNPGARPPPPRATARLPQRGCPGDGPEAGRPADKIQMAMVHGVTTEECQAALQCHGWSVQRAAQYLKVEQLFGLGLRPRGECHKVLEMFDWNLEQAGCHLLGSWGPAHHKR

[40] = molecular target: CHEK2 (human) (UniProt O96017)
[41] = molecular target: AURKC (human) (UniProt Q9UQB9)
[42] = molecular target: ADCK4 (human) (UniProt Q96D53)

SIK1 (human), sequence (P57059 whole entry, looked up): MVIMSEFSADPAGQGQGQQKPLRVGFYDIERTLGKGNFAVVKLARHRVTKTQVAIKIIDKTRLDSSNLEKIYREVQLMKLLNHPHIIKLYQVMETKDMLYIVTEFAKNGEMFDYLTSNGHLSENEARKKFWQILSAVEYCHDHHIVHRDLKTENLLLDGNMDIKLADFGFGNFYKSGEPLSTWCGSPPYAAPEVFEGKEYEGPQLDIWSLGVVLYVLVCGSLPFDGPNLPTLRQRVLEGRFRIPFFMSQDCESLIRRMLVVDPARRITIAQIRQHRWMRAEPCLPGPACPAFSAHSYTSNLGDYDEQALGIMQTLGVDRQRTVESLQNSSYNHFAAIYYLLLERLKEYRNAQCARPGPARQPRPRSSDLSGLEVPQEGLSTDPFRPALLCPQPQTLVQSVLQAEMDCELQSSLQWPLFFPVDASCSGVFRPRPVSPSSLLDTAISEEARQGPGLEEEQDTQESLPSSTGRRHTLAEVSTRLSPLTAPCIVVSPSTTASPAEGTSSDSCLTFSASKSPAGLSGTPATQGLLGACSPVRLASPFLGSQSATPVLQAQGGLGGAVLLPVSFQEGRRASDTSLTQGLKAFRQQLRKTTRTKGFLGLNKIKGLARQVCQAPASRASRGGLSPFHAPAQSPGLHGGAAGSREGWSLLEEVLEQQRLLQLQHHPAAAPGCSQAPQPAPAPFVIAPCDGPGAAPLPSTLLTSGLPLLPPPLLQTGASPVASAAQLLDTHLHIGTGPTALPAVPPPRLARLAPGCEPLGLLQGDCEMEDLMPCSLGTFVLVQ

Compound: CNC(=O)c1cc(Oc2ccc(NC(=O)Nc3ccc(Cl)c(C(F)(F)F)c3)cc2)ccn1
- per cent of control [1]: 9.2%
- per cent of control [2]: 100%
- per cent of control [3]: 97%
- per cent of control [4]: 93%
- per cent of control [5]: 79%
- per cent of control [6]: 90%
- per cent of control [7]: 2.8%
- per cent of control [8]: 100%
- per cent of control [9]: 0.05%
- per cent of control [10]: 0%
- per cent of control [11]: 100%
- per cent of control [12]: 100%
- per cent of control [13]: 48%
- per cent of control [14]: 100%
- per cent of control [15]: 74%
- per cent of control [16]: 93%
- per cent of control [17]: 99%
- per cent of control [18]: 72%
- per cent of control [19]: 16%
- per cent of control [20]: 2.4%
- per cent of control [21]: 100%
- per cent of control [22]: 0.5%
- per cent of control [23]: 79%
- per cent of control [24]: 99%
- per cent of control [25]: 100%
- per cent of control [26]: 100%
- per cent of control [27]: 100%
- per cent of control [28]: 100%
- per cent of control [29]: 70%
- per cent of control [30]: 68%
- per cent of control [31]: 100%
- per cent of control [32]: 100%
- per cent of control [33]: 57%
- per cent of control [34]: 88%
- per cent of control [35]: 0.9%
- per cent of control [36]: 79%
- per cent of control [37]: 100%
- per cent of control [38]: 38%
- per cent of control [39]: 99%
- per cent of control [40]: 63%
- per cent of control [41]: 12%
- per cent of control [42]: 90%

Compound: CNC(=O)c1cc(Oc2ccc(NC(=O)Nc3ccc(Cl)c(C(F)(F)F)c3)cc2)cc[n+]1[O-]
- per cent of control [1]: 9.4%
- per cent of control [2]: 100%
- per cent of control [3]: 96%
- per cent of control [4]: 100%
- per cent of control [5]: 66%
- per cent of control [6]: 91%
- per cent of control [7]: 3.5%
- per cent of control [8]: 82%
- per cent of control [9]: 0.1%
- per cent of control [10]: 0%
- per cent of control [11]: 98%
- per cent of control [12]: 100%
- per cent of control [13]: 35%
- per cent of control [14]: 89%
- per cent of control [15]: 16%
- per cent of control [16]: 96%
- per cent of control [17]: 100%
- per cent of control [18]: 55%
- per cent of control [19]: 6.4%
- per cent of control [20]: 2.4%
- per cent of control [21]: 68%
- per cent of control [22]: 0.4%
- per cent of control [23]: 53%
- per cent of control [24]: 100%
- per cent of control [25]: 96%
- per cent of control [26]: 100%
- per cent of control [27]: 97%
- per cent of control [28]: 100%
- per cent of control [29]: 83%
- per cent of control [30]: 19%
- per cent of control [31]: 100%
- per cent of control [32]: 83%
- per cent of control [33]: 26%
- per cent of control [34]: 84%
- per cent of control [35]: 0.3%
- per cent of control [36]: 73%
- per cent of control [37]: 100%
- per cent of control [38]: 35%
- per cent of control [39]: 100%
- per cent of control [40]: 21%
- per cent of control [41]: 15%
- per cent of control [42]: 81%

Reference: the kinase profiling compilation of Christmann-Franck et al. (2016)
